Experimental data taken from the supplement of paper PMC11208160.

Experiment: recombinant UMI read abundance after kanamycin selection (control-corrected) (log10(CPM+1)); higher = more efficient recombination; extreme values may be limits of the assay; sequences stand for … in AGTGCAGAGAAAATCGGCCAGTTTTCTCTGCCTGCAGTCCGCATGCCGTGGGACCCCTTGGGTTCTAACCTGTTGCCTAGATTTATGCAGCGGACTGCCTTTCTCCCAAAGTGATAAACCGG…AGGTTGGTTTCACT; site = the 11-nt donor
In short: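 For the IS621 bridge recombinase, a pooled Escherichia coli screen tested donor and donor-binding-loop pairs. Cells received the pair library together with a target plasmid encoding a fixed target and T7-inducible recombinase, then went onto IPTG (0.07 mM) plus kanamycin or unselected plates in duplicate. After PCR across the donor–target junction and sequencing, recombinant UMI counts were normalized to CPM, averaged, and scaled by control-derived factors. Each value is given as log10(CPM+1).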
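Also: IS621 bridge recombinase in Escherichia coli cells against a fixed T5 target plasmid.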

Sequence | recombinant UMI read abundance (log10)
AGGAAGACATGGACCGGTTTTCCCGGTAATCCGTATTTGCA (site AGGAACACTGG) | 0.014
AGGAAGACATGGACCGGTTTTCCCGGTAATCCGTATTTGCA (site AGGAACACTTG) | 1.51
AGGAAGACATGGACCGGTTTTCCCGGTAATCCGTATTTGCA (site AGGAACACTTT) | 0.0161
AGGAAGACATGGACCGGTTTTCCCGGTAATCCGTATTTGCA (site AGGAACCCTTG) | 0
AGGAAGACATGGACCGGTTTTCCCGGTAATCCGTATTTGCA (site AGGAAGACTAC) | 0.00471
AGGAAGACATGGACCGGTTTTCCCGGTAATCCGTATTTGCA (site AGGAAGACTAG) | 0.102
AGGAAGACATGGACCGGTTTTCCCGGTAATCCGTATTTGCA (site AGGAAGACTCA) | 0.0159
AGGAAGACATGGACCGGTTTTCCCGGTAATCCGTATTTGCA (site AGGAAGACTCG) | 0.784
AGGAAGACATGGACCGGTTTTCCCGGTAATCCGTATTTGCA (site AGGAAGACTGG) | 1.34
AGGAAGACATGGACCGGTTTTCCCGGTAATCCGTATTTGCA (site AGGAAGACTGT) | 0
AGGAAGACATGGACCGGTTTTCCCGGTAATCCGTATTTGCA (site AGGAAGACTTA) | 1.62
AGGAAGACATGGACCGGTTTTCCCGGTAATCCGTATTTGCA (site AGGAAGACTTC) | 0.0105
AGGAAGACATGGACCGGTTTTCCCGGTAATCCGTATTTGCA (site AGGAAGACTTG) | 2.88
AGGAAGACATGGACCGGTTTTCCCGGTAATCCGTATTTGCA (site AGGAAGACTTT) | 2.15
AGGAAGACATGGACCGGTTTTCCCGGTAATCCGTATTTGCA (site AGGAAGCCTGG) | 0
AGGAAGACATGGACCGGTTTTCCCGGTAATCCGTATTTGCA (site AGGAAGCCTTG) | 0
AGGAAGACATGGACCGGTTTTCCCGGTAATCCGTATTTGCA (site AGGAAGCCTTT) | 0
AGGAAGACATGGACCGGTTTTCCCGGTAATCCGTATTTGCA (site AGGAAGGCTAG) | 0
AGGAAGACATGGACCGGTTTTCCCGGTAATCCGTATTTGCA (site AGGAAGGCTTC) | 0
AGGAAGACATGGACCGGTTTTCCCGGTAATCCGTATTTGCA (site AGGAAGGCTTG) | 1.84
AGGAAGACATGGACCGGTTTTCCCGGTAATCCGTATTTGCA (site AGGAAGTCTCG) | 0
AGGAAGACATGGACCGGTTTTCCCGGTAATCCGTATTTGCA (site AGGAAGTCTTA) | 0.81
AGGAAGACATGGACCGGTTTTCCCGGTAATCCGTATTTGCA (site AGGAAGTCTTG) | 1.05
AGGAAGACATGGACCGGTTTTCCCGGTAATCCGTATTTGCA (site AGGAATACTAG) | 0
AGGAAGACATGGACCGGTTTTCCCGGTAATCCGTATTTGCA (site AGGAATACTTC) | 0

Sequence | recombinant UMI read abundance (log10)
AGGAAGACATGGACCGGTTTTCCCGGTAATCCGTATTTGCA (site AGGAATACTTG) | 1.12
AGGAAGACATGGACCGGTTTTCCCGGTAATCCGTATTTGCA (site AGGAATGCTTG) | 0
AGGAAGACATGGACCGGTTTTCCCGGTAATCCGTATTTGCA (site AGGACGACTAG) | 0.0203
AGGAAGACATGGACCGGTTTTCCCGGTAATCCGTATTTGCA (site AGGACGACTTC) | 0.00604
AGGAAGACATGGACCGGTTTTCCCGGTAATCCGTATTTGCA (site AGGACGACTTG) | 0.36
AGGAAGACATGGACCGGTTTTCCCGGTAATCCGTATTTGCA (site AGGACGGCTTG) | 0.00854
AGGAAGACATGGACCGGTTTTCCCGGTAATCCGTATTTGCA (site AGGACTACTTG) | 0
AGGAAGACATGGACCGGTTTTCCCGGTAATCCGTATTTGCA (site AGGAGCACTTG) | 0.0101
AGGAAGACATGGACCGGTTTTCCCGGTAATCCGTATTTGCA (site AGGAGGACTGG) | 0
AGGAAGACATGGACCGGTTTTCCCGGTAATCCGTATTTGCA (site AGGAGGACTTG) | 0
AGGAAGACATGGACCGGTTTTCCCGGTAATCCGTATTTGCA (site AGGAGGACTTT) | 0.0142
AGGAAGACATGGACCGGTTTTCCCGGTAATCCGTATTTGCA (site AGGAGGCCTTG) | 0
AGGAAGACATGGACCGGTTTTCCCGGTAATCCGTATTTGCA (site AGGATAACTTG) | 0.855
AGGAAGACATGGACCGGTTTTCCCGGTAATCCGTATTTGCA (site AGGATGACTCG) | 0.0201
AGGAAGACATGGACCGGTTTTCCCGGTAATCCGTATTTGCA (site AGGATGACTTA) | 0.0119
AGGAAGACATGGACCGGTTTTCCCGGTAATCCGTATTTGCA (site AGGATGACTTG) | 0.688
AGGAAGACATGGACCGGTTTTCCCGGTAATCCGTATTTGCA (site AGGATGTCTTG) | 0
AGGAAGACATGGACCGGTTTTCCCGGTAATCCGTATTTGCA (site AGGCAGACTAG) | 0
AGGAAGACATGGACCGGTTTTCCCGGTAATCCGTATTTGCA (site AGGCAGACTTC) | 0.0244
AGGAAGACATGGACCGGTTTTCCCGGTAATCCGTATTTGCA (site AGGCAGACTTG) | 1.49
AGGAAGACATGGACCGGTTTTCCCGGTAATCCGTATTTGCA (site AGGCAGGCTTG) | 0.0104
AGGAAGACATGGACCGGTTTTCCCGGTAATCCGTATTTGCA (site AGGCATACTTG) | 0
AGGAAGACATGGACCGGTTTTCCCGGTAATCCGTATTTGCA (site AGGCCGACTTG) | 0.00452
AGGAAGACATGGACCGGTTTTCCCGGTAATCCGTATTTGCA (site AGGGAAACTTG) | 0
AGGAAGACATGGACCGGTTTTCCCGGTAATCCGTATTTGCA (site AGGGAGACTCG) | 0

Sequence | recombinant UMI read abundance (log10)
AGGAAGACATGGACCGGTTTTCCCGGTAATCCGTATTTGCA (site AGGGAGACTTA) | 0.00967
AGGAAGACATGGACCGGTTTTCCCGGTAATCCGTATTTGCA (site AGGGAGACTTG) | 1.32
AGGAAGACATGGACCGGTTTTCCCGGTAATCCGTATTTGCA (site AGGGAGTCTTG) | 0
AGGAAGACATGGACCGGTTTTCCCGGTAATCCGTATTTGCA (site AGGGTGACTTG) | 0.161
AGGAAGACATGGACCGGTTTTCCCGGTAATCCGTATTTGCA (site AGGTACACTTG) | 1.06
AGGAAGACATGGACCGGTTTTCCCGGTAATCCGTATTTGCA (site AGGTAGACTGG) | 0
AGGAAGACATGGACCGGTTTTCCCGGTAATCCGTATTTGCA (site AGGTAGACTTG) | 1.88
AGGAAGACATGGACCGGTTTTCCCGGTAATCCGTATTTGCA (site AGGTAGACTTT) | 0.0208
AGGAAGACATGGACCGGTTTTCCCGGTAATCCGTATTTGCA (site AGGTAGCCTTG) | 0
AGGAAGACATGGACCGGTTTTCCCGGTAATCCGTATTTGCA (site AGGTGGACTTG) | 0.577
AGGAAGACATGGACCGGTTTTCCCGGTAATCCGTATTTGCA (site AGTAACACTTG) | 0.00423
AGGAAGACATGGACCGGTTTTCCCGGTAATCCGTATTTGCA (site AGTAAGACTGG) | 0
AGGAAGACATGGACCGGTTTTCCCGGTAATCCGTATTTGCA (site AGTAAGACTTG) | 1.25
AGGAAGACATGGACCGGTTTTCCCGGTAATCCGTATTTGCA (site AGTAAGACTTT) | 0.006
AGGAAGACATGGACCGGTTTTCCCGGTAATCCGTATTTGCA (site AGTAAGCCTTG) | 0
AGGAAGACATGGACCGGTTTTCCCGGTAATCCGTATTTGCA (site AGTAGGACTTG) | 0.855
AGGAAGACATGGACCGGTTTTCCCGGTAATCCGTATTTGCA (site AGTTAGACTTG) | 1
AGGAAGACATGGACCGGTTTTCCCGGTAATCCGTATTTGCA (site ATCAAGACTTG) | 0.869
AGGAAGACATGGACCGGTTTTCCCGGTAATCCGTATTTGCA (site ATGAAGACTAG) | 0
AGGAAGACATGGACCGGTTTTCCCGGTAATCCGTATTTGCA (site ATGAAGACTTC) | 0.0122
AGGAAGACATGGACCGGTTTTCCCGGTAATCCGTATTTGCA (site ATGAAGACTTG) | 1.43
AGGAAGACATGGACCGGTTTTCCCGGTAATCCGTATTTGCA (site ATGAAGGCTTG) | 0
AGGAAGACATGGACCGGTTTTCCCGGTAATCCGTATTTGCA (site ATGAATACTTG) | 0
AGGAAGACATGGACCGGTTTTCCCGGTAATCCGTATTTGCA (site ATGACGACTTG) | 0
AGGAAGACATGGACCGGTTTTCCCGGTAATCCGTATTTGCA (site ATGCAGACTTG) | 0.701
